From PubChem BioAssay (NCI)
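GI50: concentration for 50% inhibition of growth. The concentration for full growth arrest is given as TGI.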

Columns and labels:
Test in all cases: inhibition of tumour cell growth, NCI panel, 384-well format
[1] = tested on: COLO 205 colon
[2] = tested on: OVCAR-5 ovarian
[3] = tested on: CAKI-1 renal
[4] = tested on: SK-MEL-5 melanoma
[5] = tested on: MDA-MB-468 breast
[6] = tested on: PC-3 prostate
[7] = tested on: SR leukemia
[8] = tested on: SNB-75 CNS
[9] = tested on: UO-31 renal
[10] = tested on: MALME-3M melanoma
[11] = tested on: NCI-H460 NSCLC
[12] = tested on: NCI-H23 lung
[13] = tested on: TK-10 renal
[14] = tested on: DU-145 prostate
[15] = tested on: ACHN renal
[16] = tested on: HL-60(TB) leukemia
[17] = tested on: HS 578T breast
[18] = tested on: LOX IMVI melanoma
[19] = tested on: MOLT-4 leukemia
[20] = tested on: SNB-19 CNS
[21] = tested on: KM12 colon
[22] = tested on: U251 glioblastoma
[23] = tested on: SF-295 CNS
[24] = tested on: SF-268 CNS
[25] = tested on: EKVX NSCLC
[26] = tested on: HOP-92 NSCLC
[27] = tested on: K-562 leukemia
[28] = tested on: OVCAR-3 ovarian
[29] = tested on: SF-539 CNS
[30] = tested on: SK-MEL-28 melanoma
[31] = tested on: NCI-H322M lung
[32] = tested on: BT-549 breast
[33] = tested on: SN12C renal
[34] = tested on: OVCAR-4 ovarian
[35] = tested on: A498 renal
[36] = tested on: A549 NSCLC
[37] = tested on: MDA-MB-231 breast
[38] = tested on: HOP-62 NSCLC
[39] = tested on: MCF7 breast
[40] = tested on: T-47D breast
[41] = tested on: HCC-2998 colon
[42] = tested on: NCI-H226 lung
[43] = tested on: IGROV1 ovarian
[44] = tested on: M14 melanoma
[45] = tested on: MDA-MB-435 melanoma
[46] = tested on: CCRF-CEM leukemia
[47] = tested on: 786-0 renal
[48] = tested on: RXF 393 renal
[49] = tested on: HCT-15 colon
[50] = tested on: SW-620 colon
[51] = tested on: SK-OV-3 ovarian
[52] = tested on: NCI/ADR-RES ovarian
[53] = tested on: HCT-116 colon
[54] = tested on: OVCAR-8 ovarian
[55] = tested on: RPMI-8226 leukemia
[56] = tested on: UACC-257 melanoma
[57] = tested on: NCI-H522 lung
[58] = tested on: HT29 colon

## CC[C@@]1(c2ccccc2)C2=C(CC(C)(C)CC2=O)Nc2[nH]ncc21
[1]
  GI50: > 100 µM
  TGI: > 100 µM
[2]
  GI50: > 100 µM
  TGI: > 100 µM
[3]
  GI50: > 100 µM
  TGI: > 100 µM
[4]
  GI50: > 100 µM
  TGI: > 100 µM
[5]
  GI50: 30.8 µM
  TGI: > 100 µM
[6]
  GI50: > 100 µM
  TGI: > 100 µM
[7]
  GI50: 38.8 µM
  TGI: > 100 µM
[8]
  GI50: > 100 µM
  TGI: > 100 µM
[9]
  GI50: 47.1 µM
  TGI: > 100 µM
[10]
  GI50: > 100 µM
  TGI: > 100 µM
[11]
  GI50: 35 µM
  TGI: > 100 µM
[12]
  GI50: > 100 µM
  TGI: > 100 µM
[13]
  GI50: 45.2 µM
  TGI: > 100 µM
[14]
  GI50: > 100 µM
  TGI: > 100 µM
[15]
  GI50: > 100 µM
  TGI: > 100 µM
[16]
  GI50: 46.3 µM
  TGI: > 100 µM
[17]
  GI50: 64.6 µM
  TGI: > 100 µM
[18]
  GI50: > 100 µM
  TGI: > 100 µM
[19]
  GI50: > 100 µM
  TGI: > 100 µM
[20]
  GI50: > 100 µM
  TGI: > 100 µM
[21]
  GI50: > 100 µM
  TGI: > 100 µM
[22]
  GI50: 96.6 µM
  TGI: > 100 µM
[23]
  GI50: 50.9 µM
  TGI: > 100 µM
[24]
  GI50: > 100 µM
  TGI: > 100 µM
[25]
  GI50: > 100 µM
  TGI: > 100 µM
[26]
  GI50: > 100 µM
  TGI: > 100 µM
[27]
  GI50: > 100 µM
  TGI: > 100 µM
[28]
  GI50: > 100 µM
  TGI: > 100 µM
[29]
  GI50: > 100 µM
  TGI: > 100 µM
[30]
  GI50: > 100 µM
  TGI: > 100 µM
[31]
  GI50: > 100 µM
  TGI: > 100 µM
[32]
  GI50: > 100 µM
  TGI: > 100 µM
[33]
  GI50: > 100 µM
  TGI: > 100 µM
[34]
  GI50: > 100 µM
  TGI: > 100 µM
[35]
  GI50: 98.6 µM
  TGI: > 100 µM
[36]
  GI50: > 100 µM
  TGI: > 100 µM
[37]
  GI50: > 100 µM
  TGI: > 100 µM
[38]
  GI50: > 100 µM
  TGI: > 100 µM
[39]
  GI50: > 100 µM
  TGI: > 100 µM
[40]
  GI50: > 100 µM
  TGI: > 100 µM
[41]
  GI50: > 100 µM
  TGI: > 100 µM
[42]
  GI50: > 100 µM
  TGI: > 100 µM
[43]
  GI50: > 100 µM
  TGI: > 100 µM
[44]
  GI50: 56.9 µM
  TGI: > 100 µM
[45]
  GI50: > 100 µM
  TGI: > 100 µM
[46]
  GI50: > 100 µM
  TGI: > 100 µM
[47]
  GI50: > 100 µM
  TGI: > 100 µM
[48]
  GI50: 66.3 µM
  TGI: > 100 µM
[49]
  GI50: 60 µM
  TGI: > 100 µM
[50]
  GI50: > 100 µM
  TGI: > 100 µM
[51]
  GI50: > 100 µM
  TGI: > 100 µM
[52]
  GI50: > 100 µM
  TGI: > 100 µM
[53]
  GI50: 66.9 µM
  TGI: > 100 µM
[54]
  GI50: > 100 µM
  TGI: > 100 µM
[55]
  GI50: 54.7 µM
  TGI: > 100 µM
[56]
  GI50: > 100 µM
  TGI: > 100 µM
[57]
  GI50: > 100 µM
  TGI: > 100 µM
[58]
  GI50: > 100 µM
  TGI: > 100 µM
